In the assay the test system is C. elegans. The experiment in a line: C. elegans chemotaxis assay in the microfluidic biosensor. The assay is classed as in vivo, Caenorhabditis elegans. The note with it: for nematode chemotaxis score: single substance at lower concentrations, corresponding to metastatic cancer, heat maps FIGS. 7C and 7D; for CIPBS level (chemotaxis index relative to PBS): CI level of PBS buffer standards defined as 1, FIG. 3B.

Experimental: It was cultured in the OP50, a strain of Escherichia coli used to maintain C. elegans cultures, with nematode growth media (NGM) plate. Before each biosensing assay, the viability of C. elegans was assessed by probing with an inoculation needle.
All materials required for performing biosensing assay in the present biosensing system should be kept at room temperature before loading C. elegans into the biosensor to maintain their viability. Briefly, medium supernatants at −80° C. and biosensor initially stored in a 4° C. freezer were thawed at room temperature. Adult C. elegans were collected in 1.5 mL tubes and washed twice with phosphate-buffered saline (PBS) buffer (Gibco, Waltham, MA, USA) before assay. All clinical samples to be tested were transported at room temperature, and the biosensing assay should be completed within 4 hours from the time of collection. The clinical samples should be mixed well before loading, and about 1 ml of the sample was taken into a 1.5 ml tube for each biosensing assay. The remaining samples could be sealed and stored at −80° C. for further use.
During each biosensing assay, approximately 50-100 μl of PBS containing 100 C. elegans was gently pipetted into the middle of the second layer where the organism loading region is disposed without compromising the viability of C. elegans and disrupting the integrity of the NGM agar, thereby increasing the reliability of the biosensing assay results. Once the C. elegans were settled, the pressure pump was started immediately to flow the test samples, comparative sample and/or negative control to the corresponding bio-incubation chambers from the fluid inlets at the first layer and through different fluid channels to reach the second layer without damaging the NGM agar integrity. In certain embodiments, an optimal flow rate of the fluid applied to the biosensor is about 0.5 mL/min. […] By this optimal flow rate, all fluid channels can be primed in 1 min and about 10 to 100 μl droplets can be formed at each fluid outlet of the fluid channels. Because of that, the volume of the test samples applied in each fluid inlet at each round of biosensing assay can be less than 1 mL. […]
To standardize the quantitative readouts, a chemotaxis index (CI) relative to the CI measured from PBS (CIPBS) was derived by the following Equation:
The CIPBS level readouts were evaluated with the present biosensing system using a range of glutamate concentration levels that included concentrations detected from MCF-7 and MDA-MB-231 clusters (0.02 mg/ml, 0.04 mg/ml, 0.06 mg/ml, 0.08 mg/ml, and 0.1 mg/ml) (FIG. 3A). CI level readouts were modified for parallel comparison of all concentrations, with the CI level obtained from PBS buffer standards defined as 1.

On to `O=C(O)[C@@H]1CCCN1` [L-proline], for which the nematode chemotaxis score entry is listed as “around 6”.

Take `N[C@@H](CCC(=O)O)C(=O)O` [glutamate]: the “CIPBS level (chemotaxis index relative to PBS)” value runs as follows: (glutamate concentration 0.02 mg/ml) 3.6±0.03; (glutamate concentration 0.1 mg/ml (highest tested)) 1.1±0.04. Consider `NC(N)=O` [urea], for which the nematode chemotaxis score entry is on record as “around 6”.

The record behind these values is patent US20240157358A1, “BIOSENSING SYSTEM AND METHOD FOR IN-SITU DETERMINATION OF METASTASIS IN A SAMPLE” (City University of Hong Kong, priority 2022, published 2024).
